The source of these data is US20160223526A1, “METHOD OF SCREENING FOR COMPOUNDS USEFUL IN THE TREATMENT OF HUNTINGTON DISEASE” (INNOVATIVE CONCEPTS IN DRUG DEVELOPMENT, priority 2013, published 2016).

The experiment concerns Patient-derived fibroblasts, cells from HD patient (ID 090401). Nature of the experiment: Reversal of the HD-signature (mitochondrial behaviour variables) by dynamic imaging of patient-derived fibroblasts. The experiment is classed as cell-based, human. The conditions noted are these: for recovery (weighted overall rescue of the diseased phenotype, discriminant equation on 7 HD-signature variables): 30 min incubation, 0% = diseased status, 100% = healthy status. As to the method: Fibroblasts were labelled with MitoTracker green, a cell-permeant mitochondrial dye not sensitive to mitochondrial membrane potential, for 30 minutes. Images were recorded from an epifluorescence microscope continuously for 6 minutes. Cells were kept at 37° C. for the duration of the image capture. For each experimental condition, 3 to 15 cells were recorded per well from three independent plates, i.e. up to 6000 individual mitochondria. The maximum duration for data acquisition was 30 minutes (i.e. five cells observed during 6 min). Images were captured with a Zeiss Axioplan II microscope along three dimensions in space and in time.
Patient-derived fibroblasts were cultured in DMEM containing 15% fetal calf serum. and 0.5% DMSO, a concentration known to be inert on the mitochondrial behaviour.
Cells were incubated with different doses of resveratrol or cyclosporine A (CSA) diluted in DMSO or with the vehicle only (DMSO) for 30 minutes and observed through time-lapse video-microscopy for another 30 minutes during dynamic image capture.
Resveratrol and CSA were tested at 4 doses spanning […] (10, 1, 0.1 and 0.05 μM).
The negative control was cells from HD patient (ID 090401) with the vehicle only and the positive control was cells from healthy patient (ID 071201) with the vehicle only.
The raw data obtained for each mitochondrion were expressed as a ratio (%) according to the following formula: DATA=(NC−Var)*100/(NC−PC) (NC=average value of the negative control; PC=average value of the positive control; Var=value of the variable).
Effects are expressed as a percent of control values as defined above, i.e. % of phenotypic rescue. 0% represents the diseased status while 100% represents the healthy status.
To express the weighted effect of the variables on the overall rescue, a discriminant equation was applied.

Each structure is given as a SMILES string.

On to `Oc1ccc(C=Cc2cc(O)cc(O)c2)cc1` [Resveratrol], for which the “recovery (weighted overall rescue of the diseased phenotype, discriminant equation on 7 HD-signature variables)” value runs as follows: (0.05 μM) “detrimental effect with a mild worsening of the diseased status”; (10 μM) “exceeds the healthy status”. The “overall effect / activity profile over the dose range (weighted dose-response on disease-modification)” value (doses 10, 1, 0.1 and 0.05 μM) was “disease-modifying capabilities and rescue of the disease status except at low dose”.
